For data set [1] the following is noted: cited from earlier work.
Data set [2] is described as follows: Water solubility of taxol phosphate analog / arginine heptamer salt versus taxol.
Procedure: This water soluble analog of taxol was assayed for biological activity using a standard cytotoxicity assay.
The conditions of data set [3]: fluorescein alone; cited from earlier work.

`CC(=O)O[C@H]1C(=O)[C@@]2(C)[C@H]([C@H](OC(=O)c3ccccc3)[C@]3(O)C[C@H](OC(=O)[C@H](O)[C@@H](NC(=O)c4ccccc4)c4ccccc4)C(C)=C1C3(C)C)[C@]1(OC(C)=O)CO[C@@H]1C[C@@H]2O` [taxol, paclitaxel]: in data set [1], the water solubility entry is “≈ 0.25 μg/mL”. The solubility in water entry in data set [2] is given as “very limited solubility”. `O=C1OC2(c3ccc(O)cc3Oc3cc(O)ccc32)c2ccccc21` [fluorescein]: the “solubility in water (general statement)” value in data set [3] is “poorly soluble”. On to `CC(=O)O[C@@]12CO[C@@H]1C[C@H](O)[C@@]1(C)C(=O)[C@H](O)C3=C(C)[C@@H](OC(=O)[C@H](O)[C@@H](NC(=O)OC(C)(C)C)c4ccccc4)C[C@@](O)([C@@H](OC(=O)c4ccccc4)[C@H]21)C3(C)C` [taxotere], for which, in data set [1], the water solubility was 6 to 7 µg/mL.

(Values after patent US20020009491A1, “Compositions and methods for enhancing drug delivery across biological membranes and tissues” (priority 2000, published 2002).)
